The source made the active and inactive calls. The rule behind the calls is not given here.
Experiments:
[1] = target: T1, Neuropeptide Y receptor type 2 (Homo sapiens, UniProt P49146); experiment: (§1) Displacement of [125I]PYY from NPY-Y2 receptor in human KAN-TS cell membranes after 1 hr by scintillation counting analysis
T1 sequence (P49146 whole entry): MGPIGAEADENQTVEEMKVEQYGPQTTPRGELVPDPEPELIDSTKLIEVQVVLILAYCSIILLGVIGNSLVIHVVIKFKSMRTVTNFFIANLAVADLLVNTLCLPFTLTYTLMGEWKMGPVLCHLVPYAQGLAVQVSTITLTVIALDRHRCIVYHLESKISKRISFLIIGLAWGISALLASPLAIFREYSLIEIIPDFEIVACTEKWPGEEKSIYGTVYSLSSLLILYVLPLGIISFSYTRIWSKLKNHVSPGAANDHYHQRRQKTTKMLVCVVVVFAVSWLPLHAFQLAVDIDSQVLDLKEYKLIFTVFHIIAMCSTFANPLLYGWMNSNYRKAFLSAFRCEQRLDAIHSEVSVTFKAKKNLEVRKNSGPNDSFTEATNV

[2] = target: T2, Neuropeptide Y receptor type 2 (Homo sapiens) (UniProt P49146); experiment: as §1
T2 sequence (whole entry): T1 sequence (P49146 whole entry)

[3] = target: T3, Microsomal triglyceride transfer protein large subunit (Homo sapiens, UniProt P55157); experiment: Inhibition of MTP (unknown origin)-mediated triglyceride transfer from donor to acceptor vesicles preincubated for 5 mins followed by enzyme addition by [14C]-counting analysis
T3 sequence (P55157 whole entry): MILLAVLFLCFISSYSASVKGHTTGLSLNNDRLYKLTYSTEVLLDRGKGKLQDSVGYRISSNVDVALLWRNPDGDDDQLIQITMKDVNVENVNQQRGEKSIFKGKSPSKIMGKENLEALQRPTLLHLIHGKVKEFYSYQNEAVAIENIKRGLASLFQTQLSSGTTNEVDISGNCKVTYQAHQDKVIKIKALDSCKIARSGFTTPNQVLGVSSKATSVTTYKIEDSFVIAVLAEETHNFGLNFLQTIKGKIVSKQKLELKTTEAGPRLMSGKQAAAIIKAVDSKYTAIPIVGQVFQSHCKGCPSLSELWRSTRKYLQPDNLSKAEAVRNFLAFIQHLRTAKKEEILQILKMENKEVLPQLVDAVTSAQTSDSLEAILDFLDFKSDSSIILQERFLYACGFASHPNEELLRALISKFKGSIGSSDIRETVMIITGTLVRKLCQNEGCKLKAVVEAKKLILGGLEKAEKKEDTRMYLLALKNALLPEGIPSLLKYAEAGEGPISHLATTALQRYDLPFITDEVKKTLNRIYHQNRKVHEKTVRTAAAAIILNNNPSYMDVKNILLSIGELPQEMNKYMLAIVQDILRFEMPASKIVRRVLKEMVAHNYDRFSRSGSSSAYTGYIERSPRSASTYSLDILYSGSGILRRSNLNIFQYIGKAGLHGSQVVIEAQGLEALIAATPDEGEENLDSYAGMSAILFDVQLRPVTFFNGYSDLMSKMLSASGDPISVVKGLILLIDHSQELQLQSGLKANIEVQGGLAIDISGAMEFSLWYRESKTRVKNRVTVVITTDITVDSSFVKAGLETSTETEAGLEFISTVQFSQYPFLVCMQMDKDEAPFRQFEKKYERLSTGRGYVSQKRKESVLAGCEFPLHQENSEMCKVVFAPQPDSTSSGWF

Rattus norvegicus = experiment: Receptor occupancy in Sprague-Dawley rat brain at 10 mg/kg, sc by LC/MS analysis; assay type: functional
[4] = target: T1, Neuropeptide Y receptor type 2; experiment: Antagonist activity at NPY-Y2 receptor in human KAN-TS cell membranes assessed as inhibition of PYY-stimulated [35S]GTPgammaS binding preincubated for 30 mins prior to [35S]GTPgammaS-treatment measured after 1 hr; assay type: functional; conditions: read-out: pA2 (converted)
[5] = Metabolic stability in human liver microsomes assessed as compound remaining after 15 mins; assay type: ADME, Microsome; conditions: read-out: Stability
[6] = Metabolic stability in rat liver microsomes assessed as compound remaining after 15 mins; assay type: ADME, Microsome; conditions: read-out: Stability
[7] = target: T3, Microsomal triglyceride transfer protein large subunit; experiment: Inhibition of MTP (unknown origin)

SMILES: CCNC(=O)C(c1ccccc1)C1CCN(c2ccc(NC(=O)c3ccccc3-c3cccnc3)cc2F)CC1 (centres undefined)
- IC50 [1]: 24 nM

SMILES: CCNC(=O)C(c1ccccc1)C1CCN(c2ccc(NS(=O)(=O)c3ccccc3-c3ccccc3)cc2F)CC1 (centres undefined)
- Activity [2]: inactive

SMILES: CCN(CC)C(=O)C(c1ccccc1)C1CCN(c2ccc(NC(=O)Nc3c(C)noc3C)cc2F)CC1 (centres undefined)
- IC50 [3]: > 10000 nM
- Occ (Rattus norvegicus): inactive
- Kb [4]: 2 nM
- remaining at 0.25 h [5]: 1.5%
- remaining at 0.25 h [6]: 17%
- IC50 [1]: 12 nM

SMILES: CCNC(=O)C(c1ccccc1)C1CCN(c2ccc(NC(=O)Nc3c(C)noc3C)cc2F)CC1 (centres undefined)
- IC50 [3]: > 10000 nM
- Occ (Rattus norvegicus): inactive
- Kb [4]: 3.98 nM

SMILES: CCN(CC)C(=O)C(c1ccccc1)N1CCN(c2ccc(NC(=O)c3ccccc3-c3cccnc3)cc2F)CC1 (centres undefined)
- IC50 [7]: 710 nM
- remaining at 0.25 h [5]: 1.4%
- remaining at 0.25 h [6]: 1.7%

SMILES: CCNC(=O)C(c1ccccc1)C1CCN(c2ccc(NC(=O)c3ccccc3-c3ccsc3)cc2F)CC1 (centres undefined)
- IC50 [1]: 70 nM

SMILES: CCN(CC)C(=O)C(c1ccccc1)C1CCN(c2ccc(NC(=O)c3ccccc3-c3cccnc3)cc2F)CC1 (centres undefined)
- remaining at 0.25 h [5]: 73%
- remaining at 0.25 h [6]: 98%
- IC50 [1]: 7 nM

SMILES: CCNC(=O)C(c1ccccc1)C1CCN(c2ccc(NC(=O)Nc3ccccc3-c3ccccc3)cc2F)CC1 (centres undefined)
- IC50 [1]: 27 nM

SMILES: CCNC(=O)C(c1ccccc1)C1CCN(c2ccc(NC(=O)c3c(C)noc3C)cc2F)CC1 (centres undefined)
- IC50 [1]: 476 nM

SMILES: CCN(CC)C(=O)C(c1ccccc1)C1CCN(c2ccc(NC(=O)c3c(C)noc3C)cc2F)CC1 (centres undefined)
- IC50 [3]: > 10000 nM
- Occ (Rattus norvegicus; route subcutaneous): 50%
- Kb [4]: 31.6 nM
- remaining at 0.25 h [5]: 5.3%
- remaining at 0.25 h [6]: 3.3%
- IC50 [1]: 37 nM

SMILES: CCNC(=O)C(c1ccccc1)C1CCN(c2ccc(NC(=O)c3ccccc3-c3ccccc3)cc2F)CC1 (centres undefined)
- IC50 [1]: 12 nM

SMILES: CCNC(=O)C(c1ccccc1)C1CCN(c2ccc(NC(=O)c3ccccc3Br)cc2F)CC1 (centres undefined)
- IC50 [1]: 665 nM

SMILES: CCNC(=O)C(c1ccccc1)C1CCN(c2ccc(C(=O)Nc3ccccc3-c3ccccc3)cc2F)CC1 (centres undefined)
- IC50 [1]: 45 nM

Source: ChEMBL document CHEMBL2401643, “The discovery of potent selective NPY Y(2) antagonists” (Bioorg Med Chem Lett, 2013)
